Test results from US20200038412A1, “METHODS OF TREATING ALZHEIMER'S DISEASE USING AMINOSTEROL COMPOSITIONS” (Enterin, Inc., priority 2018, published 2020).

Columns and labels:
αS = αS (Homo sapiens, UniProt P37840); conditions: in vitro (Perni et al. 2017); cited from earlier work
[1] = Pharmacokinetics of orally administered squalamine (ENT-01) in Stage 1; type: in vivo, human
Procedure: PK data were collected on the 10 patients enrolled in Stage 1 and 10 patients enrolled in Stage 2 to determine the extent of systemic absorption. In Stage 1, PK data were obtained at each visit, pre-medication, at 1, 2, 4, 8 and 24 hours (Table 10). In Stage 2, PK was measured on days 1 and 6 of the randomization period pre-medication, at 1, 2, 4 and 8 hours (Table 11).
The mean Cmax, Tmax and T1/2 and AUC of the squalamine ion following squalamine (ENT-01) oral dosing for Stage 1 patients. The PK analyses are only approximate, as the lower limit of the validated concentration range was 10 ng/ml; most of the measured concentrations fell below that value. The mean Cmax, Tmax and T1/2 and AUC of the squalamine ion following squalamine (ENT-01) oral dosing for Stage 2 patients. The PK analyses are only approximate, as the lower limit of the validated concentration range was 0.5 ng/ml.

[2] = system: patients with PD and constipation; experiment: Phase 2 trial Stage 2: bowel function under daily oral dosing (escalation, fixed dose, wash-out); type: in vivo, human
Procedure: Following successful screening, all subjects underwent a 14-day run-in period where the degree of constipation was assessed through a validated daily log (Zinsmeister et al. 2013) establishing baseline CSBMs/week. Subjects with an average of <3 CSBMs/week proceeded to dosing.
In Stage 2, 34 patients were evaluated.
The primary efficacy outcome variable was whether or not a subject was a “success” or “failure”. This is an endpoint based on subject diary entries for the “fixed dose” period prior to the endpoint assessment defined as average complete stool frequency increase by 1 or more over baseline, or 3 or more complete spontaneous stools/week. The subject was deemed a “success” if s/he met one or more of the criteria listed above, otherwise the subject was deemed a “failure”. The primary analysis was based on all subjects with a baseline assessment and an assessment at the end of the “fixed-dose” period and was a comparison of the proportion of successes with 0.10 (the null hypothesis corresponding to no treatment effect).

[3] = system: patients with PD and constipation; experiment: Phase 2 trial Stage 1: adverse events; type: in vivo, human
Excerpt: Tolerability limits included diarrhea or vomiting.

[4] = Stage 1, 10 dosed, unrelated to ENT-01

CC(C)[C@@H](CC[C@@H](C)[C@H]1CC[C@H]2[C@@H]3[C@H](O)C[C@H]4C[C@@H](NCCCNCCCCN)CC[C@]4(C)[C@H]3CC[C@]12C)OS(=O)(=O)O (single isomer, unassigned) [squalamine (ENT-01), squalamine]
formation of aggregates of αS (αS): inhibit the formation of aggregates of αS | AUC0-8 hr ([1]; Stage 1, oral 50 mg, 10 patients): 18.5 ng·h/mL | AUC0-8 hr ([1]; Stage 1, oral 100 mg, 9 patients): 29.6 ng·h/mL | AUC0-8 hr ([1]; Stage 1, oral 200 mg, 6 patients): 78.3 ng·h/mL | T1/2 ([1]; Stage 1, oral 200 mg, n = 5): 9.0 (5) hours | approximate oral bioavailability ([1]; Stage 1, oral dosing up to 200 mg, compared with prior phase 1 IV data): about 0.1% | bioavailability ([1]; human, plasma, oral, PD patients, estimated from pharmacokinetic behavior of intravenously administered squalamine in prior clinical studies): < 0.3% | improvement of ease of passage ([2]; 3.2 to 3.7): 16% | response rate (CSBM within 24 hours of dosing on at least 2 of 3 days) ([2]; Stage 2, daily oral dosing, 75 mg): 26% | CSBM, weekly average ([2]; Stage 2, fixed dose, mean (SD), n = 34, baseline 1.2 (0.90)): 3.8 (2.4) CSBM/week | Suppository use / rescue medication, weekly average ([2]; Stage 2, fixed dose, mean (SD), n = 34, baseline 1.8 (1.92)): 0.3 (0.67) /week | Consistency (Bristol stool scale 1-7) ([2]; Stage 2, fixed dose, mean (SD), n = 34, baseline 2.7 (1.20), listed as aminosterol): 4.1 | Ease of passage (Ease of evacuation scale 1-7) ([2]; Stage 2, fixed dose, mean (SD), n = 34, baseline 3.2 (0.73), listed as aminosterol): 3.7 | PAQ-SYM ([2]; Stage 2, wash-out, mean (SD), baseline 1.3 (0.45)): 1.1 (0.60) | PAQ-QOL ([2]; Stage 2, wash-out, mean (SD), baseline 1.4 (0.49)): 1.2 (0.63) | Rescue meds ([2]; Stage 2, wash-out, mean (SD), baseline 1.8 (1.92)): 1.0 (1.40) | Consistency ([2]; Stage 2, wash-out, mean (SD), baseline 2.7 (1.20)): 2.8 (1.39) | Ease ([2]; Stage 2, wash-out, mean (SD), baseline 3.2 (0.73)): 3.3 (0.81) | improvement of average CSBM/week ([2]; baseline 1.2 to fixed dose 3.8): 216% | decrease of use of rescue medication ([2]; baseline 1.8/week to fixed dose 0.3): 83% | improvement of SBM ([2]; baseline 2.6 to fixed dose 4.5): 73% | CSBM frequency in the randomized cohort ([2]; group later randomized to placebo (n = 9), fixed dose period (still on drug), baseline 1.6): 3.3 CSBM/week | CSBM frequency in the randomized cohort ([2]; group randomized to treatment (n = 6), fixed dose period, baseline 0.8): 3.2 CSBM/week | CSBM frequency in the randomized cohort ([2]; group randomized to treatment (n = 6), randomized period (4-6 days continued treatment), baseline 0.8): 2.4 CSBM/week | CSBM frequency in the randomized cohort ([2]; group randomized to treatment (n = 6), washout, baseline 0.8): 0.9 CSBM/week | improvement of consistency (Bristol stool scale) ([2]; mean 2.7 to 4.1): 52% | mean dose required for a bowel response (prokinetic dose) ([2]; patients with baseline ≥1 CSBM/week): 120 mg | patients responding ([2]; within effective dose range 75 mg to 250 mg): 85% | AEs confined to the GI tract ([3]; Stage 1): 88% | Diarrhea (common adverse events by dose) ([3]; Stage 1, 25 mg): 1 | Nausea (common adverse events by dose) ([3]; Stage 1, 25 mg): 0 | Vomiting (common adverse events by dose) ([3]; Stage 1, 25 mg): 0 | Diarrhea (common adverse events by dose) ([3]; Stage 1, 50 mg): 1 | Nausea (common adverse events by dose) ([3]; Stage 1, 50 mg): 0 | Vomiting (common adverse events by dose) ([3]; Stage 1, 50 mg): 0 | Diarrhea (common adverse events by dose) ([3]; Stage 1, 75 mg): 1 | Nausea (common adverse events by dose) ([3]; Stage 1, 75 mg): 0 | Vomiting (common adverse events by dose) ([3]; Stage 1, 75 mg): 0 | Diarrhea (common adverse events by dose) ([3]; Stage 1, 100 mg): 0 | Nausea (common adverse events by dose) ([3]; Stage 1, 100 mg): 1 | Vomiting (common adverse events by dose) ([3]; Stage 1, 100 mg): 1 | Diarrhea (common adverse events by dose) ([3]; Stage 1, 125 mg): 1 | Nausea (common adverse events by dose) ([3]; Stage 1, 125 mg): 2 | Vomiting (common adverse events by dose) ([3]; Stage 1, 125 mg): 1 | Diarrhea (common adverse events by dose) ([3]; Stage 1, 150 mg): 1 | Nausea (common adverse events by dose) ([3]; Stage 1, 150 mg): 0 | Vomiting (common adverse events by dose) ([3]; Stage 1, 150 mg): 0 | Diarrhea (common adverse events by dose) ([3]; Stage 1, 175 mg): 1 | Nausea (common adverse events by dose) ([3]; Stage 1, 175 mg): 1 | Vomiting (common adverse events by dose) ([3]; Stage 1, 175 mg): 0 | Diarrhea (common adverse events by dose) ([3]; Stage 1, 200 mg): 0 | Nausea (common adverse events by dose) ([3]; Stage 1, 200 mg): 2 | Vomiting (common adverse events by dose) ([3]; Stage 1, 200 mg): 0 | patients with diarrhea ([3]; Stage 1, 4/10 patients): 40% | patients with nausea ([3]; Stage 1, 4/10 patients): 40% | Abdominal pain, Mild ([3]; Stage 1, 10 dosed): 2 (20) n, % | Abdominal pain, Moderate ([3]; Stage 1, 10 dosed): 3 (30) n, % | Blood in urine, Moderate ([3]; Stage 1, 10 dosed): 0 n, % | Diarrhea, Mild ([3]; Stage 1, 10 dosed): 1 (10) n, % | Diarrhea, Moderate ([3]; Stage 1, 10 dosed): 3 (30) n, % | Diarrhea, Severe ([3]; Stage 1, 10 dosed): 0 n, % | Difficulty falling asleep, Mild ([3]; Stage 1, 10 dosed): 0 n, % | Difficulty falling asleep, Moderate ([3]; Stage 1, 10 dosed): 0 n, % | Dizziness, Mild ([3]; Stage 1, 10 dosed): 0 n, % | Dizziness, Moderate ([3]; Stage 1, 10 dosed): 0 n, % | Eye infection, Mild ([3]; Stage 1, 10 dosed): 0 n, % | Eye infection, Moderate ([3]; Stage 1, 10 dosed): 0 n, % | Flatulence, Mild ([3]; Stage 1, 10 dosed): 2 (20) n, % | Flatulence, Moderate ([3]; Stage 1, 10 dosed): 0 n, % | Headache, Mild ([3]; Stage 1, 10 dosed): 1 (10) n, % | Headache, Moderate ([3]; Stage 1, 10 dosed): 0 n, % | Increased urinary frequency, Mild ([3]; Stage 1, 10 dosed): 0 n, % | Increased urinary frequency, Moderate ([3]; Stage 1, 10 dosed): 0 n, % | Loss of appetite, Moderate ([3]; Stage 1, 10 dosed): 0 n, % | Lower GI bleed, Severe ([3]; Stage 1, 10 dosed): 0 n, % | Nausea, Mild ([3]; Stage 1, 10 dosed): 4 (40) n, % | Nausea, Moderate ([3]; Stage 1, 10 dosed): 0 n, % | Skin lesions-rash, Mild ([3]; Stage 1, 10 dosed): 0 n, % | Skin lesions-rash, Moderate ([3]; Stage 1, 10 dosed): 0 n, % | Urinary retention, Mild ([3]; Stage 1, 10 dosed): 0 n, % | Urinary retention, Moderate ([3]; Stage 1, 10 dosed): 0 n, % | Urinary tract infection, Mild ([3]; Stage 1, 10 dosed): 0 n, % | Urinary tract infection, Moderate ([3]; Stage 1, 10 dosed): 0 n, % | Vomiting, Mild ([3]; Stage 1, 10 dosed): 1 (10) n, % | Vomiting, Moderate ([3]; Stage 1, 10 dosed): 0 n, % | Worsening acid reflux, Mild ([3]; Stage 1, 10 dosed): 0 n, % | Worsening acid reflux, Moderate ([3]; Stage 1, 10 dosed): 0 n, % | Worsening hemorrhoid, Mild ([3]; Stage 1, 10 dosed): 0 n, % | Worsening hemorrhoid, Moderate ([3]; Stage 1, 10 dosed): 0 n, % | Blood in urine, Mild [3, 4]: 1 (10) n, % | Loss of appetite, Mild [3, 4]: 1 (10) n, %
